Source: patent publication US9029389B2 (Institut Pasteur Korea, priority 2011, dated 2015)

The compounds below were run against T1, Human 5-lipoxygenase (Homo sapiens, UniProt P09917) (assay: Activity of compounds against 5-LO enzyme (LTB4 measurement and/or fluorescence method)). Settings: 5-LO, single concentration of 10 uM in duplicate.
T1 construct: purchased Cayman 60402; host or cells: insect cells
T1 sequence (P09917 1-674): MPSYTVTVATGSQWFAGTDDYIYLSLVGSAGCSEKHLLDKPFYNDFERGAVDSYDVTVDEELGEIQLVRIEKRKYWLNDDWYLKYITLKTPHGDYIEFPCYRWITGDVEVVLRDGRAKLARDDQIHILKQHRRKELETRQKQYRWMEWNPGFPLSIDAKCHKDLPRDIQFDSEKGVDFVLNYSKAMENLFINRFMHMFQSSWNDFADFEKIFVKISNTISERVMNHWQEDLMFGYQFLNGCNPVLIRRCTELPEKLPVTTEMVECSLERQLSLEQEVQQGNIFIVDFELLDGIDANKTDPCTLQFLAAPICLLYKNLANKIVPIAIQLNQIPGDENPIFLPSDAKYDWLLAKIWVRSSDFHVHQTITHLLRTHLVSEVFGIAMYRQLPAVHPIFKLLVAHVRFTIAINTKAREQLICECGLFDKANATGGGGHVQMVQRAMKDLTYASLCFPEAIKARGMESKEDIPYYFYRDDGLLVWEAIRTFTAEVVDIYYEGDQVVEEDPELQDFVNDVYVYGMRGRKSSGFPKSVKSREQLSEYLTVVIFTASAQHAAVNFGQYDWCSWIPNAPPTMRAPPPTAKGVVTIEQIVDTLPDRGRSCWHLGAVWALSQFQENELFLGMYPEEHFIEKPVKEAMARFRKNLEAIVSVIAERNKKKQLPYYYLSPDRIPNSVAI
Format: biochemical
Description: The activity of compounds against 5-LO were determined by measuring LTB4 (leukotriene B4) levels and/or by a fluorescence method. Both approaches are outlined in more detail below;
Human 5-lipoxygenase (Cayman, Cat#60402) produced in insect cells was pre-incubated with compound for 15 min at RT in incubation buffer (50 mM Tris-Cl, pH 7.4, 2 mM CaCl2, 0.1 mM ATP, 1% DMSO). The enzymatic reaction was started by adding arachidonic acid to a final concentration of 3 uM. After 5 min of incubation at 37° C., the reaction was stopped by heatinactivation at 80° C. for 5 min. LTB4 levels were quantified by using LTB4 EIA kit (Cayman, Cat#520111) as instructed and/or LTB4 levelswere measured with LC/MS/MS using Quattro Premier™ XE tandem quadrupole mass spectrometer equipped with Acquity UPLC system (Waters, Milford, Mass.). The method was slightly modified as reported previously (Zweifel et al., 2008, Willey et al., 2008, Chappell et al, 2011). Briefly, chromatographic separation was carried out with Acquity UPLC BEH Shield RP18 Column (2.1 mm×50 mm, 1.7 μm particle size, Waters, Milford, Mass.). Sample injection volume was 10 μl, the column temperature was 35° C., the mobile phase A consisted of water with 0.1% formic acid and the mobile phase B consisted of acetonitrile with 0.1% formic acid. Flow rate was 0.4 mL/min and the gradient condition was as follows.
Relative quantification of LTB4 and LTB4-d4 (Internal Standard) was done using multi reaction monitoring (MRM) of the transitions of m/z 335→195 for LTB4, 339→197 for LTB4-d4 in electrospray ionization (ESI) negative mode. Desolvation temperature was 400° C., source temperature was 130° C. Capillary voltage, cone voltage, and collision voltage were 3.5 kV, 30V, and 20 eV, respectively. Nitrogen was used for desolvation (750 L/h) and cone (50 L/h) gas. Argon was used for collision gas (0.22 ml/min). The dwell time was 10 ms.
Besides the two methods quantifying LTB4 level, a fluorescence assay measuring 5-HpETE was introduced for high-throughput screening in a 384 well microplate format (Pufahl et al., 2007). For nonspecific ester cleavage of the acetate groups in H2DCFDA, the insect cell lysate expressing human 5-LO (Cayman Cat#60402) was incubated with H2DCFDA (50 mM Tris-Cl, pH 7.5, 2 mM CaCl2, 20 uM H2DCFDA, 500 mU 5-LO per reaction) for 5 minutes. Compound and enzyme mixture were pre-incubated for 5 minutes, and the enzymatic reaction was initiated by addition of ATP and arachidonic acid to a final concentration of 100 uM and 3 uM, respectively. After 5 minutes of incubation, the fluorescence was measured using Spectramax M5 (Molecular Device, Ex/Em=485 nm/530 nm). All steps were carried out at room temperature.
A total of 378 compounds were initially tested at a single concentration of 10 uM in duplicate with the results summarized in Table 1. From these 378 compounds, 53 compounds plus an additional 25 were selected for confirmation of activity by 6 or 11 point dose response in duplicate with the corresponding IC50 values outlined in Table 2.

SMILES | inhibition at 10 µM
CCc1nc2ccccn2c1C(=O)NCc1ccc(OC(C)C)cc1 [compound 53, 2-Ethyl-N-(4-isopropoxybenzyl)imidazo[1,2-a]pyridine-3-carboxamide] | < 40%
CCc1nc2cc(Cl)ccn2c1C(=O)NCc1ccc(-c2ccc(C(F)(F)F)cc2)cc1 [compound 111, 7-Chloro-2-ethyl-N-((4′-(trifluoromethyl)biphenyl-4-yl)methyl)imidazo[1,2-a]pyridine-3-carboxamide] | < 40%
CCc1nc2ccc(Cl)cn2c1C(=O)NCC1CCCc2c1cnn2-c1ccc(OC(F)(F)F)cc1 (stereo not shown) [compound 147, 6-Chloro-2-ethyl-N-((1-(4-(trifluoromethoxy)phenyl)-4,5,6,7-tetrahydro-1H-indazol-4-yl)methyl)imidazo[1,2-a]pyridine-3-carboxamide] | 40 to 69%
CCc1nc2ccc(Cl)cn2c1C(=O)NCc1ccc2oc(-c3ccc(F)cc3)nc2c1 [compound 258, 6-Chloro-2-ethyl-N-((2-(4-fluorophenyl)benzo[d]oxazol-5-yl)methyl)imidazo[1,2-a]pyridine-3-carboxamide] | < 40%
CCc1nc2ccc(Cl)cn2c1C(=O)NCc1ccn(-c2ccc(C(F)(F)F)cc2)n1 [compound 151, 6-Chloro-2-ethyl-N-((1-(4-(trifluoromethyl)phenyl)-1H-pyrazol-3-yl)methyl)imidazo[1,2-a]pyridine-3-carboxamide] | < 40%
CCc1nc2ccc(Cl)cn2c1C(=O)NCc1ccc(N2CCC(Oc3ccc(Cl)cc3)CC2)cc1 [compound 166, 6-Chloro-N-(4-(4-(4-chlorophenoxy)piperidin-1-yl)benzyl)-2-ethylimidazo[1,2-a]pyridine-3-carboxamide] | 40 to 69%
CCc1nc2ccc(Cl)cn2c1C(=O)NCc1ccc(N2CCN(C(=O)Cc3ccc(F)cc3)CC2)cc1 [compound 320, 6-chloro-2-ethyl-N-(4-(4-(2-(4-fluorophenyl)acetyl)piperazin-1-yl)benzyl)imidazo[1,2-a]pyridine-3-carboxamide] | < 40%
CCc1nc2cc(Cl)c(Cl)cn2c1C(=O)NCc1ccc(OC(F)(F)F)cc1 [compound 178, 6,7-Dichloro-2-ethyl-N-(4-(trifluoromethoxy)benzyl)imidazo[1,2-a]pyridine-3-carboxamide] | < 40%
CCc1nc2cc(Cl)ccn2c1C(=O)NCc1ccc(-c2ccccc2Cl)cc1 [compound 82, 7-Chloro-N-((2′-chlorobiphenyl-4-yl)methyl)-2-ethylimidazo[1,2-a]pyridine-3-carboxamide] | 40 to 69%
CCc1nc2cc(Cl)ccn2c1C(=O)NCc1ccc(-c2ccc(OC)cc2)cc1 [compound 113, 7-Chloro-2-ethyl-N-((4′-methoxybiphenyl-4-yl)methyl)imidazo[1,2-a]pyridine-3-carboxamide] | 40 to 69%
CCc1nc2cc(Cl)ccn2c1C(=O)NCc1ccc(N2CCC(C(=O)N(C)C)CC2)cc1 [compound 294, 7-Chloro-N-(4-(4-(dimethylcarbamoyl)piperidin-1-yl)benzyl)-2-ethylimidazo[1,2-a]pyridine-3-carboxamide] | < 40%
CCc1nc2cc(Cl)ccn2c1C(=O)NCc1ccc(N2CCC(COC3CCCC3)CC2)cc1 [compound 286, 7-Chloro-N-(4-(4-(cyclopentyloxymethyl)piperidin-1-yl)benzyl)-2-ethylimidazo[1,2-a]pyridine-3-carboxamide] | 40 to 69%
CCc1nc2ccc(C)cn2c1C(=O)NCc1ccc(-c2ccccc2)cc1 [compound 57, N-(Biphenyl-4-ylmethyl)-2-ethyl-6-methylimidazo[1,2-a]pyridine-3-carboxamide] | 40 to 69%
CCc1nc2ccc(F)cn2c1C(=O)NCc1ccc(OC(F)(F)F)cc1 [compound 120, 2-Ethyl-6-fluoro-N-(4-(trifluoromethoxy)benzyl)imidazo[1,2-a]pyridine-3-carboxamide] | 40 to 69%
Cc1nc2ccccn2c1C(=O)Nc1ccncc1 [compound 11, 2-Methyl-N-(pyridin-4-yl)imidazo[1,2-a]pyridine-3-carboxamide] | < 40%
Cc1nc2c(O)cccn2c1C(=O)NCc1ccccc1 [compound 48, N-Benzyl-8-hydroxy-2-methylimidazo[1,2-a]pyridine-3-carboxamide] | < 40%
CCc1nc2ccc(Cl)cn2c1C(=O)NCc1ccc(N2CCC(C(=O)c3ccc(F)cc3)CC2)cc1 [compound 323, 6-chloro-2-ethyl-N-(4-(4-(4-fluorobenzoyl)piperidin-1-yl)benzyl)imidazo[1,2-a]pyridine-3-carboxamide] | < 40%
CCc1nc2cc(Cl)ccn2c1C(=O)NCc1ccc(N2CCC(Oc3ccc(OC(F)(F)F)cc3)CC2)cc1 [compound 123, 7-Chloro-2-ethyl-N-(4-(4-(4-(trifluoromethoxy)phenoxy)piperidin-1-yl)benzyl)imidazo[1,2-a]pyridine-3-carboxamide] | > 69%
CCc1nc2ccc(Cl)cn2c1C(=O)NCc1ccc(Nc2ccc(OC(F)(F)F)cc2)cc1 [compound 174, 6-Chloro-2-ethyl-N-(4-(4-(trifluoromethoxy)phenylamino)benzyl)imidazo[1,2-a]pyridine-3-carboxamide] | > 69%
CCc1nc2cc(Cl)ccn2c1C(=O)NCc1ccc(Oc2ccc(F)cc2)cc1 [compound 129, 7-Chloro-2-ethyl-N-(4-(4-fluorophenoxy)benzyl)imidazo[1,2-a]pyridine-3-carboxamide] | 40 to 69%
CCc1nc2cc(Cl)ccn2c1C(=O)NCc1ccn(-c2ccc(C(F)(F)F)cc2)n1 [compound 152, 7-Chloro-2-ethyl-N-((1-(4-(trifluoromethyl)phenyl)-1H-pyrazol-3-yl)methyl)imidazo[1,2-a]pyridine-3-carboxamide] | 40 to 69%
Cc1nc2ccccn2c1C(=O)NCc1ccc(F)cc1 [compound 4, N-(4-Fluorobenzyl)-2-methylimidazo[1,2-a]pyridine-3-carboxamide] | < 40%
CCc1nc2ccc(Cl)cn2c1C(=O)NCc1ccc(-c2ccccc2Cl)cc1 [compound 72, 6-Chloro-N-((2′-chlorobiphenyl-4-yl)methyl)-2-ethylimidazo[1,2-a]pyridine-3-carboxamide] | 40 to 69%
Cc1nc2ccccn2c1C(=O)NCCOCc1ccccc1 [compound 29, N-(2-(Benzyloxy)ethyl)-2-methylimidazo[1,2-a]pyridine-3-carboxamide] | < 40%
CCc1nc2ccc(Cl)cn2c1C(=O)NCc1ccc(-c2cccc(C#N)c2)cc1 [compound 99, 6-Chloro-N-((3′-cyanobiphenyl-4-yl)methyl)-2-ethylimidazo[1,2-a]pyridine-3-carboxamide] | < 40%
CCc1nc2cc(Cl)ccn2c1C(=O)NCc1ccc2oc(-c3ccc(F)cc3)nc2c1 [compound 259, 7-Chloro-2-ethyl-N-((2-(4-fluorophenyl)benzo[d]oxazol-5-yl)methyl)imidazo[1,2-a]pyridine-3-carboxamide] | < 40%

Same assay, conditions: 6 or 11 point dose response in duplicate

SMILES | IC50
CCc1nc2cc(Cl)ccn2c1C(=O)NCc1ccc(N2CCC(Oc3ccc(OC(F)(F)F)cc3)CC2)cc1 [compound 123, 7-Chloro-2-ethyl-N-(4-(4-(4-(trifluoromethoxy)phenoxy)piperidin-1-yl)benzyl)imidazo[1,2-a]pyridine-3-carboxamide] | > 20 µM
CCc1nc2ccc(Cl)cn2c1C(=O)NCc1ccc(Nc2ccc(OC(F)(F)F)cc2)cc1 [compound 174, 6-Chloro-2-ethyl-N-(4-(4-(trifluoromethoxy)phenylamino)benzyl)imidazo[1,2-a]pyridine-3-carboxamide] | 1 to 20 µM
